Source: PubChem BioAssay AID256 (DTP/NCI, 2004)
Where “and” joins values, the source holds several entries; their conditions need not be identical. Equal entries are not always repeated. Toxic doses and inconclusive results are not listed. The calls were made as follows: active = survival T/C of 150% or more; inactive = T/C below 125% in these data.

Tested on: CD2F1 mice, L1210 leukemia ip, survival T/C
Experiment: NCI In Vivo Anticancer Drug Screen. Data for tumor model L1210 Leukemia (intraperitoneal) in CD2F1 (CDF1) mice
Conditions: higher = longer survival
Outline: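 Compound-dosed mice with transplantable tumor versus matched vehicle controls; endpoint ratio T/C reported.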

Measured: T/C

OCCOCC12c3ccccc3C3C(c4ccccc41)C32 (stereo unspecified)
inactive: endpoint: mean survival time, dose: 25.0 mg/kg/injection, schedule: Q01DX001 (ip), vehicle: saline with Tween-80 91 % of control | endpoint: mean survival time, dose: 50.0 mg/kg/injection, schedule: Q01DX001 (ip), vehicle: saline with Tween-80 97 % of control | endpoint: mean survival time, dose: 100.0 mg/kg/injection, schedule: Q01DX001 (ip), vehicle: saline with Tween-80 105 % of control | endpoint: mean survival time, dose: 200.0 mg/kg/injection, schedule: Q01DX001 (ip), vehicle: saline with Tween-80 94 % of control

NC(N)=NC(N)=Nc1cc(Cl)c(Cl)cc1Cl
inactive: endpoint: mean survival time, dose: 100.0 mg/kg/injection, schedule: Q04DX003 (ip), vehicle: saline with Tween-80 96 % of control | endpoint: mean survival time, dose: 200.0 mg/kg/injection, schedule: Q04DX003 (ip), vehicle: saline with Tween-80 96 % of control | endpoint: mean survival time, dose: 400.0 mg/kg/injection, schedule: Q04DX003 (ip), vehicle: saline with Tween-80 98 % of control

c1ccc(N=C2SCCS2)cc1
inactive: endpoint: mean survival time, dose: 3.13 mg/kg/injection, schedule: Q01DX001 (ip), vehicle: Klucel (hydroxypropylcellulose) (HPC) 93 % of control | endpoint: mean survival time, dose: 6.25 mg/kg/injection, schedule: Q01DX001 (ip), vehicle: Klucel (hydroxypropylcellulose) (HPC) 97 % of control | endpoint: mean survival time, dose: 12.5 mg/kg/injection, schedule: Q01DX001 (ip), vehicle: Klucel (hydroxypropylcellulose) (HPC) 108 % of control

CCN(CC)C(=S)SC/C=C\CC(Cl)(Cl)Cl
inactive: endpoint: mean survival time, dose: 75.0 mg/kg/injection, schedule: Q04DX003 (ip), vehicle: saline 97 % of control | endpoint: mean survival time, dose: 150.0 mg/kg/injection, schedule: Q04DX003 (ip), vehicle: saline 101 % of control | endpoint: mean survival time, dose: 300.0 mg/kg/injection, schedule: Q04DX003 (ip), vehicle: saline 109 % of control

COc1ccc(-c2nc(N)nc3c2CN(CCC(=O)O)C3=O)cc1
inactive: endpoint: mean survival time, dose: 100.0 mg/kg/injection, schedule: Q04DX003 (ip), vehicle: saline 102 % of control | endpoint: mean survival time, dose: 200.0 mg/kg/injection, schedule: Q04DX003 (ip), vehicle: saline 100 % of control | endpoint: mean survival time, dose: 400.0 mg/kg/injection, schedule: Q04DX003 (ip), vehicle: saline 102 % of control

O=C(O)C1OC(Sc2ncnc3nc[nH]c23)C(O)C(O)C1O (stereo unspecified)
inactive: endpoint: median survival time, dose: 25.0 mg/kg/injection, schedule: Q01DX005 (ip), vehicle: saline 98 % of control | endpoint: median survival time, dose: 50.0 mg/kg/injection, schedule: Q01DX005 (ip), vehicle: saline 108 % of control | endpoint: median survival time, dose: 100.0 mg/kg/injection, schedule: Q01DX005 (ip), vehicle: saline 109 % of control | endpoint: median survival time, dose: 200.0 mg/kg/injection, schedule: Q01DX005 (ip), vehicle: saline 120 % of control and 112 % of control | endpoint: median survival time, dose: 400.0 mg/kg/injection, schedule: Q01DX005 (ip), vehicle: saline 115 % of control
